What was measured:
Type in all cases: in vivo, human
Total lipid panel = assay: Total lipid panel
Method: (§1) Sixty subjects were consented for this study. This study was conducted in the Integrative Physiology of Aging Laboratory and the Clinical and Translational Research Center (CTRC) at the University of Colorado Boulder. All blood assays were performed at either Boulder Community Hospital or the University of Colorado Denver Anschutz Medical Campus CTRC Core Laboratory. All testing sessions were performed after an overnight fast and 24-hour abstention from exercise and alcohol consumption. All subjects refrained from all prescription medications for 24 hours and over the counter medications for 48 hours prior to all testing visits.
(§2) Clinical laboratory values were obtained from blood samples collected at the end of each intervention phase in 21 subjects. Complete blood work was not obtained in three subjects due to a failed catheterization during at least one of the testing phases.

[1] = Complete blood count (clinical laboratory values at end of each intervention phase)
Method: as §1, §2

[2] = test system: healthy middle-aged and older adults; assay: Carotid-femoral pulse wave velocity (large elastic artery stiffness)
Method: Carotid-femoral PWV, the gold-standard assessment of elastic artery stiffness in humans, was measured using transcutaneous tonometry. Pressure waveforms were recorded simultaneously from the carotid and femoral arteries using two identical non-invasive pressure tonometers (SPT-301, Millar Instruments, Houston, Tex., USA). The transit distance was calculated as the distance between the carotid and femoral recording sites, after subtracting the distance between the carotid recording site and the sternal notch. PWV was calculated as the transit distance divided by the time delay between the foot of each pressure wave.

[3] = test system: healthy middle-aged and older adults; assay: Resting brachial artery blood pressure
Method: Resting brachial artery blood pressure and heart rate were measured in the seated position after 5 minutes of rest in a quiet examination room using a semi-automated blood pressure device (DYNAMAP™ XL, Johnson & Johnson, Arlington, Tex., USA). Measurements were made multiple times from the non-dominant arm, with 2 minutes of quiet rest between recordings. Repeat measurements were made until 3 blood pressure values were obtained that were within 5 mmHg of one another. These values were then averaged to determine resting systolic and diastolic blood pressure, pulse pressure, mean arterial pressure, and resting heart rate. Baseline blood pressure values were obtained using the above-described protocol on two separate testing days prior to the initiation of the first intervention arm and were averaged to determine baseline blood pressure status (i.e., normotensive vs. pre-hypertensive) for subsequent analyses.
To determine if this effect was greater in subjects with elevated baseline blood pressure, subjects were characterized as either normotensive (SBP <120 mmHg; DBP <80 mmHg) or pre-hypertensive (SBP 120-139 mmHg; DBP 80-89 mmHg) based on their average baseline blood pressure obtained on two separate days. The inventors observed a near significant interaction between treatment condition (NR vs. placebo) and blood pressure status for systolic blood pressure (FIG. 3A; P=0.07), with no effect on diastolic pressure (FIG. 3C), and […] on mean arterial pressure (FIG. 3E; P=0.08). […] Diastolic blood pressure also tended to be reduced in prehypertensive individuals; however this effect was lower in magnitude (3 mmHg reduction) and approached significance (FIG. 3D; P=0.09).

[4] = end of 6-week phase, mean ± SEM, 21 subjects
[5] = NR condition, end of 6-week phase, mean ± SEM, 21 subjects
[6] = NR condition, end of 6-week phase, mean ± SEM, 21 subjects, *P < 0.05 vs. placebo
[7] = all subjects, NR condition compared with placebo, P<0.05
[8] = pre-hypertensive individuals, P<0.01

NC(=O)c1ccc[n+]([C@@H]2O[C@H](CO)[C@@H](O)[C@H]2O)c1 [NR, nicotinamide riboside]
Difference between treatment conditions for blood lipid profiles (Total lipid panel; NR vs placebo): No meaningful differences | HDL-C (Total lipid panel; [4]): 60 ± 5 mg/dL | LDL-C (Total lipid panel; [4]): 94 ± 5 mg/dL | N-HDL-C (Total lipid panel; [4]): 111 ± 6 mg/dL | Total cholesterol (Total lipid panel; [4]): 171 ± 6 mg/dL | Triglycerides (Total lipid panel; [4]): 90 ± 14 mg/dL | VLDL-C (Total lipid panel; [4]): 17 ± 3 mg/dL | HCT [1, 5]: 41.1 ± 0.7% | HGB [1, 5]: 13.9 ± 0.2 g/dL | MCH [1, 5]: 31.2 ± 0.3 pg | MCHC [1, 5]: 33.8 ± 0.2 g/dL | MCV [1, 5]: 92.3 ± 0.9 fL | RBC [1, 5]: 4.5 ± 0.1 10^6/μL | RDW [1, 5]: 13.0 ± 0.2% | WBC [1, 5]: 4.3 ± 0.3 10^3/μL | basophils absolute [1, 5]: 0.05 ± 0.01 10^3/μL | eosinophils absolute [1, 5]: 0.14 ± 0.03 10^3/μL | lymphocytes absolute [1, 5]: 1.18 ± 0.08 10^3/μL | lymphocytes relative [1, 5]: 29.5 ± 1.7% | monocytes absolute [1, 5]: 0.52 ± 0.08 10^3/μL | monocytes relative [1, 5]: 10.7 ± 0.6% | neutrophils absolute [1, 5]: 2.41 ± 0.19 10^3/μL | neutrophils relative [1, 5]: 55.3 ± 1.4% | platelet count [1, 5]: 206 ± 14 10^3/μL | MPV [1, 6]: 10.7 ± 0.2* fL | basophils relative [1, 6]: 1.3 ± 0.2* % | eosinophils relative [1, 6]: 2.9 ± 0.5* % | Difference between treatment conditions for hematology ([1]; NR vs placebo): No meaningful differences | All clinical laboratory values versus normal reference range ([1]; all clinical laboratory values (Tables 3-5), NR condition): remained within the normal reference range | Relevance of changes in mean platelet volume and relative distribution of white blood cell types ([1]; statistically significant difference between conditions, extremely low effect sizes): physiologically insignificant | PWV lowering by baseline blood pressure status ([2]; all subjects, regardless of baseline blood pressure status): lowered PWV by a similar degree in all subjects | Large elastic artery stiffness, aortic pulse wave velocity (PWV) ([2]; following NR supplementation compared with placebo): significantly reduced | Mean arterial blood pressure ([3]; all subjects): moderately lowered | Resting diastolic blood pressure [3, 7]: significantly reduced | Resting systolic blood pressure [3, 7]: significantly reduced | Pre-hypertension, hypertension, and arterial stiffness ([3]; human subjects, 500 mg twice daily, within 6 weeks or less): significant improvements | Blood pressure ([3]; normotensive individuals): no effect | Lowering of systolic blood pressure compared with placebo [3, 8]: 8 mmHg | Mean (arterial) pressure [3, 8]: significant reduction | Reduction of diastolic blood pressure ([3]; prehypertensive individuals, P=0.09): 3 mmHg
